For orientation: IC50 means the midpoint of a concentration-inhibition curve.

Tie-2, sequence (Q02763 23-1124): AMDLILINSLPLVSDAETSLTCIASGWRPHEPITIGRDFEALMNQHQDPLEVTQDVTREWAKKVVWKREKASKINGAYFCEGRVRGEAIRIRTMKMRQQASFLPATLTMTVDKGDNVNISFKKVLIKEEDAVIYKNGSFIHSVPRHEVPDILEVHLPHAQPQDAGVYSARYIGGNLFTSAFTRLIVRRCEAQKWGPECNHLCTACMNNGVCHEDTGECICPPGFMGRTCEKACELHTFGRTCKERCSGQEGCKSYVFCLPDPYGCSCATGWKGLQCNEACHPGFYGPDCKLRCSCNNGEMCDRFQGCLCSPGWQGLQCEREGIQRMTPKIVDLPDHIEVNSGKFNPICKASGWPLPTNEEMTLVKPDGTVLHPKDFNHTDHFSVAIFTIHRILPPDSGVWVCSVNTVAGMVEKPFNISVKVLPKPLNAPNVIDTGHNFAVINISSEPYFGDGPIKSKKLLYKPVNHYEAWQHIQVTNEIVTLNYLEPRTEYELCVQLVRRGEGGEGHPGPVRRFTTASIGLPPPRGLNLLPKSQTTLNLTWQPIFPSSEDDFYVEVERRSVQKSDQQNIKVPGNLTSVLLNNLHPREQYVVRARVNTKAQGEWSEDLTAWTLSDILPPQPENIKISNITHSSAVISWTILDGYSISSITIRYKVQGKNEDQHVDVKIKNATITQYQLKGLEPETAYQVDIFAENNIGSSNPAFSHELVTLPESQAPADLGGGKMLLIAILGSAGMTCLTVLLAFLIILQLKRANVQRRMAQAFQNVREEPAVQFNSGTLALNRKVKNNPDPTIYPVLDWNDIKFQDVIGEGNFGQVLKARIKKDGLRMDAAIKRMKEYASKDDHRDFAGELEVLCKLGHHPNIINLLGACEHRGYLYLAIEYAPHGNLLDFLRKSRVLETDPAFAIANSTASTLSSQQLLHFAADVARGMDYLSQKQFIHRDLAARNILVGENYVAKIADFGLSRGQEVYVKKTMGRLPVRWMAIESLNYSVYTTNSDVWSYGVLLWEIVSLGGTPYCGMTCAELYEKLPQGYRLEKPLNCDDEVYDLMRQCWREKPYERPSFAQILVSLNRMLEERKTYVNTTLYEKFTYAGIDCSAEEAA

The target in this assay is Tie-2 (Homo sapiens, UniProt Q02763). The experiment in a line: Tie-2 tyrosine kinase activity: kinase-dependent ATP consumption (pEY substrate, luciferase/luciferin chemiluminescence) or 33P-ATP incorporation into substrate. The assay is classed as biochemical. To be noted: Tie-2 (human enzyme) inhibition, Table 2, class symbols A-D. In outline:
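Values are IC50 categories: A below 50 nM, B above 50 to 1000 nM, C above 1000 to below 10,000 nM, D 10,000 nM or more. They were measured by 33P-ATP phosphate transfer onto a generic substrate bound to the plate (scintillation), or by luminescent luciferase detection of ATP used with pEY.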
Compound `COc1ccc(-c2nc(-c3ccncc3)nn2CCN(C(=O)Nc2ccccc2SC)C2CCCC2)cc1Cl` [Entry 154, N-(2-{5-[3-chloro-4-(methyloxy)phenyl]-3-pyridin-4-yl-1H-1,2,4-triazol-1-yl}ethyl)-N-cyclopentyl-N′-[2-(methylthio)phenyl]urea] registered an IC50 of no less than 10000 nM.
As for `COc1ccc(-c2nc(-c3ccncc3)nn2CCN(C(=O)Nc2cccc(C(F)(F)F)c2)C2CCCC2)cc1Cl` [Entry 155, N-(2-{5-[3-chloro-4-(methyloxy)phenyl]-3-pyridin-4-yl-1H-1,2,4-triazol-1-yl}ethyl)-N-cyclopentyl-N′-[3-(trifluoromethyl)phenyl]urea], the figure is no less than 10000 nM; as for `C=CCNC(=O)N(CCn1nc(-c2ccncc2)nc1-c1ccc(OC)c(Cl)c1)C1CCCC1` [Entry 156, N-(2-{5-[3-chloro-4-(methyloxy)phenyl]-3-pyridin-4-yl-1H-1,2,4-triazol-1-yl}ethyl)-N-cyclopentyl-N′-prop-2-en-1-ylurea], no less than 10000 nM; as for `COc1ccc(-c2nc(-c3ccncc3)nn2CCN(C(=O)Nc2ccccc2C(C)C)C2CCCC2)cc1Cl` [Entry 157, N-(2-{5-[3-chloro-4-(methyloxy)phenyl]-3-pyridin-4-yl-1H-1,2,4-triazol-1-yl}ethyl)-N-cyclopentyl-N′-[2-(1-methylethyl)phenyl]urea], no less than 10000 nM.
The compound `COc1ccc(-c2nc(-c3ccncc3)nn2CCN(C(=O)Nc2cc(F)ccc2C)C2CCCC2)cc1Cl` [Entry 158, N-(2-{5-[3-chloro-4-(methyloxy)phenyl]-3-pyridin-4-yl-1H-1,2,4-triazol-1-yl}ethyl)-N-cyclopentyl-N′-(5-fluoro-2-methylphenyl)urea] registered an IC50 of 1000 to 10000 nM.
In the case of `COc1ccc(-c2nc(-c3ccncc3)nn2CCN(C(=O)Nc2ccc(F)c(F)c2)C2CCCC2)cc1Cl` [Entry 159, N-(2-{5-[3-chloro-4-(methyloxy)phenyl]-3-pyridin-4-yl-1H-1,2,4-triazol-1-yl}ethyl)-N-cyclopentyl-N′-(3,4-difluorophenyl)urea], the IC50 was 1000 to 10000 nM.
`Cc1nc(-c2ccncc2)nn1CCN(CCN1CCOCC1)C(=O)Cc1cccc2ccccc12` [Entry 160, N-[2-(5-methyl-3-pyridin-4-yl-1H-1,2,4-triazol-1-yl)ethyl]-N-(2-morpholin-4-ylethyl)-2-naphthalen-1-ylacetamide] yielded a 50% inhibitory concentration (IC50) of no less than 10000 nM.
`CNc1nccc(-c2nc(C)n(CCN(C(=O)Cc3cccc4ccccc34)C3CCCC3)n2)n1` [Entry 161, N-cyclopentyl-N-(2-{5-methyl-3-[2-(methylamino)pyrimidin-4-yl]-1H-1,2,4-triazol-1-yl}ethyl)-2-naphthalen-1-ylacetamide] returned an IC50 of no less than 10000 nM.
In the case of `Cc1nc(-c2ccc3nsnc3c2)nn1CCN(C(=O)Cc1cccc2ccccc12)C1CCCC1` [Entry 162, N-{2-[3-(2,1,3-benzothiadiazol-5-yl)-5-methyl-1H-1,2,4-triazol-1-yl]ethyl}-N-cyclopentyl-2-naphthalen-1-ylacetamide], the IC50 was in the range of 50 to 1000 nM.
Regarding `Cc1nc(-c2ccnc(N3CCOCC3)c2)nn1CCN(C(=O)Cc1cccc2ccccc12)C1CCCC1` [Entry 163, N-cyclopentyl-N-{2-[5-methyl-3-(2-morpholin-4-ylpyridin-4-yl)-1H-1,2,4-triazol-1-yl]ethyl}-2-naphthalen-1-ylacetamide], the IC50 was 1000 to 10000 nM.
Compound `Cc1nc(-c2ccnc(NCCN(C)C)c2)nn1CCN(C(=O)Cc1cccc2ccccc12)C1CCCC1` [Entry 164, N-cyclopentyl-N-{2-[3-(2-{[2-(dimethylamino)ethyl]amino}pyridin-4-yl)-5-methyl-1H-1,2,4-triazol-1-yl]ethyl}-2-naphthalen-1-ylacetamide] returned an IC50 of 50 to 1000 nM.
In the case of `Cc1nc(-c2ccnc(Nc3ccccc3)c2)nn1CCN(C(=O)Cc1cccc2ccccc12)C1CCCC1` [Entry 165, N-cyclopentyl-N-(2-{5-methyl-3-[2-(phenylamino)pyridin-4-yl]-1H-1,2,4-triazol-1-yl}ethyl)-2-naphthalen-1-ylacetamide], the IC50 lay in the range of 50 to 1000 nM.
In turn, `CCNc1cc(-c2nc(C)n(CCN(C(=O)Cc3cccc4ccccc34)C3CCCC3)n2)ccn1` [Entry 166, N-cyclopentyl-N-(2-{3-[2-(ethylamino)pyridin-4-yl]-5-methyl-1H-1,2,4-triazol-1-yl}ethyl)-2-naphthalen-1-ylacetamide] yielded an IC50 of less than 50 nM.
As for `CNc1cc(-c2nc(C)n(CCN(C(=O)Cc3cccc4ccccc34)C3CCCC3)n2)ccn1` [Entry 167, N-cyclopentyl-N-(2-{5-methyl-3-[2-(methylamino)pyridin-4-yl]-1H-1,2,4-triazol-1-yl}ethyl)-2-naphthalen-1-ylacetamide], the figure is less than 50 nM; as for `Cc1nc(-c2ccncc2)nn1CCN(C(=O)Cc1cccc2ccccc12)C1CC1` [Entry 168, N-cyclopropyl-N-[2-(5-methyl-3-pyridin-4-yl-1H-1,2,4-triazol-1-yl)ethyl]-2-naphthalen-1-ylacetamide], 50 to 1000 nM; as for `Cc1nc(-c2ccncc2)nn1CCN(CCN1CCCC1)C(=O)Cc1cccc2ccccc12` [Entry 169, N-[2-(5-methyl-3-pyridin-4-yl-1H-1,2,4-triazol-1-yl)ethyl]-2-naphthalen-1-yl-N-(2-pyrrolidin-1-ylethyl)acetamide], no less than 10000 nM.
In the case of `Cc1nc(-c2ccncc2)nn1CCN(CCN(C)C)C(=O)Cc1cccc2ccccc12` [Entry 170, N-[2-(dimethylamino)ethyl]-N-[2-(5-methyl-3-pyridin-4-yl-1H-1,2,4-triazol-1-yl)ethyl]-2-naphthalen-1-ylacetamide] it was 1000 to 10000 nM.
As for `Cc1nc(-c2ccncc2)nn1CCN(C(=O)Cc1cccc2ccccc12)C1CCOCC1` [Entry 171, N-[2-(5-methyl-3-pyridin-4-yl-1H-1,2,4-triazol-1-yl)ethyl]-2-naphthalen-1-yl-N-(tetrahydro-2H-pyran-4-yl)acetamide], the figure is 50 to 1000 nM; as for `Cc1nc(-c2ccnc(NCc3ccccc3)c2)nn1CCN(C(=O)Cc1cccc2ccccc12)C1CCCC1` [Entry 172, N-cyclopentyl-N-[2-(5-methyl-3-{2-[(phenylmethyl)amino]pyridin-4-yl}-1H-1,2,4-triazol-1-yl)ethyl]-2-naphthalen-1-ylacetamide], 50 to 1000 nM; as for `CCCCNc1cc(-c2nc(C)n(CCN(C(=O)Cc3cccc4ccccc34)C3CCCC3)n2)ccn1` [Entry 173, N-(2-{3-[2-(butylamino)pyridin-4-yl]-5-methyl-1H-1,2,4-triazol-1-yl}ethyl)-N-cyclopentyl-2-naphthalen-1-ylacetamide], less than 50 nM.
For the compound `Cc1nc(-c2ccnc(NCCN3CCOCC3)c2)nn1CCN(C(=O)Cc1cccc2ccccc12)C1CCCC1` [Entry 174, N-cyclopentyl-N-[2-(5-methyl-3-{2-[(2-morpholin-4-ylethyl)amino]pyridin-4-yl}-1H-1,2,4-triazol-1-yl)ethyl]-2-naphthalen-1-ylacetamide], the IC50 is less than 50 nM.
As for `COCCNc1cc(-c2nc(C)n(CCN(C(=O)Cc3cccc4ccccc34)C3CCCC3)n2)ccn1` [Entry 175, N-cyclopentyl-N-{2-[5-methyl-3-(2-{[2-(methyloxy)ethyl]amino}pyridin-4-yl)-1H-1,2,4-triazol-1-yl]ethyl}-2-naphthalen-1-ylacetamide], the IC50 was less than 50 nM.
`Cc1nc(-c2ccnc(N)c2)nn1CCN(C(=O)Cc1cccc2ccccc12)C1CCCC1` [Entry 176, N-{2-[3-(2-aminopyridin-4-yl)-5-methyl-1H-1,2,4-triazol-1-yl]ethyl}-N-cyclopentyl-2-naphthalen-1-ylacetamide] registered an IC50 of less than 50 nM.
On to `Cc1nc(-c2ccncc2)nn1CCN(C(=O)Cc1cccc2ccccc12)C(C)C` [Entry 177, N-(1-methylethyl)-N-[2-(5-methyl-3-pyridin-4-yl-1H-1,2,4-triazol-1-yl)ethyl]-2-naphthalen-1-ylacetamide], for which the IC50 is less than 50 nM.
For `Cc1nc(-c2ccncc2)nn1CCN(CCN1CCCCC1)C(=O)Cc1cccc2ccccc12` [Entry 178, N-[2-(5-methyl-3-pyridin-4-yl-1H-1,2,4-triazol-1-yl)ethyl]-2-naphthalen-1-yl-N-(2-piperidin-1-ylethyl)acetamide], the IC50 was no less than 10000 nM.
Consider `Cc1nc(-c2ccncc2)nn1CCN(C(=O)Cc1cccc2ccccc12)C1CCCCC1` [Entry 179, N-cyclohexyl-N-[2-(5-methyl-3-pyridin-4-yl-1H-1,2,4-triazol-1-yl)ethyl]-2-naphthalen-1-ylacetamide], for which the IC50 is less than 50 nM.
Take `Cc1nc(-c2ccncc2)nn1CCN(CC1CCCO1)C(=O)Cc1cccc2ccccc12` (stereo not drawn) [Entry 180, N-[2-(5-methyl-3-pyridin-4-yl-1H-1,2,4-triazol-1-yl)ethyl]-2-naphthalen-1-yl-N-(tetrahydrofuran-2-ylmethyl)acetamide]: the half-maximal inhibitory concentration (IC50) lay within 50 to 1000 nM.
In the case of `Cc1nc(-c2ccnc(NC3CCCNC3)c2)nn1CCN(C(=O)Cc1cccc2ccccc12)C1CCCC1` (stereo not drawn) [Entry 181, N-cyclopentyl-N-(2-{5-methyl-3-[2-(piperidin-3-ylamino)pyridin-4-yl]-1H-1,2,4-triazol-1-yl}ethyl)-2-naphthalen-1-ylacetamide], the IC50 is 50 to 1000 nM.
Take `Cc1nc(-c2ccnc(N[C@@H]3CCNC3)c2)nn1CCN(C(=O)Cc1cccc2ccccc12)C1CCCC1` [Entry 182, N-cyclopentyl-N-[2-(5-methyl-3-{2-[(3R)-pyrrolidin-3-ylamino]pyridin-4-yl}-1H-1,2,4-triazol-1-yl)ethyl]-2-naphthalen-1-ylacetamide]: the half-inhibitory concentration (IC50) was in the range of 50 to 1000 nM.
In turn, `Cc1nc(-c2ccnc(NCCN3CCCCC3)n2)nn1CCN(C(=O)Cc1cccc2ccccc12)C1CCCC1` [Entry 183, N-cyclopentyl-N-[2-(5-methyl-3-{2-[(2-piperidin-1-ylethyl)amino]pyrimidin-4-yl}-1H-1,2,4-triazol-1-yl)ethyl]-2-naphthalen-1-ylacetamide] returned an IC50 of less than 50 nM.

Values taken from patent publication US8178570B2, “Tie-2 modulators and methods of use” (Exelixis, Inc., priority 2003, dated 2012).
